Target: EGFR T790M/L858R Ba/F3 cell line (Homo sapiens, UniProt P00533, T790M/L858R, cells depend on it)
Test: Ba/F3 cell proliferation model
Assay type: cell-based, murine
Conditions: combined with cetuximab (% cetuximab, 1.0 μM drug concentration with 1.0 μg/mL cetuximab)
Excerpt: The selectivity between wild-type EGFR and EGFR containing one or more mutations as described herein can also be measured using cellular proliferation assays where cell proliferation is dependent on kinase activity. For example, murine Ba/F3 cells transfected with a suitable version of wild-type EGFR (such as VIII; containing a WT EGFR kinase domain), or Ba/F3 cells transfected with L858R/T790M, Del/T790M/L718Q, L858R/T790M/L718Q, L858R/T790M/C797S, Del/T790M/C797S, L858R/T790M/I941R, or Exon 19 deletion/T790M can be used.
Cell lines are plated in media. The compounds of the present disclosure are then serially diluted and transferred to the cells. Cell viability is measured via a luminescent readout. Data is analyzed by non-linear regression curve-fitting. […]
The EGFR mutant L858R, Del E746_A750, L858R/T790M, DelE746_A750/T790M, L858R/T790M/C797S and Del/T790M/C797S Ba/F3 cells have been previously described (Zhou, W., Ercan, D., Chen, L., Yun, C. H., Li, D., Capelletti, M., Cortot, A. B., Chirieac, L., Iacob, R. E., Padera, R., et al. “Novel mutant-selective EGFR kinase inhibitors against EGFR T790M,” Nature 462, (2009), 1070-1074). All cell lines were maintained in RPMI 1640 (Cellgro; Mediatech Inc., Herndon, Calif.) supplemented with 10% FBS 100 units/mL penicillin, 100 units/mL streptomycin, and 2 mM glutamine. L858R cells were maintained in ACL-4 media (Invitrogen, Carlsbad, Calif.) supplemented with 5% FBS, 100 units/mL penicillin, 100 units/mL streptomycin, and 2 mM glutamine. The EGFR I941R mutation was introduced via site directed mutagenesis using the Quick Change Site-Directed Mutagenesis kit (Stratagene; La Jolla, Calif.) according to the manufacturer's instructions. All constructs were confirmed by DNA sequencing. The constructs were shuttled into the retroviral vector JP 1540 using the BD Creator™ System (BD Biosciences). Ba/F3 cells were infected with retrovirus and according to standard protocols, as described previously (Zhou et al, Nature 2009). Stable clones were obtained by selection in puromycin (2 μg/ml).
Growth and inhibition of growth was assessed by MTS assay and was performed according to previously established methods (Zhou et al., Nature 2009). The MTS assay is a colorimetric method for determining the number of viable cells that is based on the bioreduction of MTS by cells to a formazan product that is soluble in cell culture medium and can be detected spectrophotometrically. Ba/F3 cells of different EGFR genotypes were exposed to treatment for 72 hours and the number of cells used per experiment determined empirically and has been previously established (Zhou et al., Nature 2009). All experimental points were set up in six wells and all experiments were repeated at least three times. […] The curves were fitted using a non-linear regression model with a sigmoidal dose response.
Inhibition data of an EGFR T790M/L858R Ba/F3 cell line.

Chain of EGFR T790M/L858R Ba/F3 cell line (P00533 whole entry T790M/L858R): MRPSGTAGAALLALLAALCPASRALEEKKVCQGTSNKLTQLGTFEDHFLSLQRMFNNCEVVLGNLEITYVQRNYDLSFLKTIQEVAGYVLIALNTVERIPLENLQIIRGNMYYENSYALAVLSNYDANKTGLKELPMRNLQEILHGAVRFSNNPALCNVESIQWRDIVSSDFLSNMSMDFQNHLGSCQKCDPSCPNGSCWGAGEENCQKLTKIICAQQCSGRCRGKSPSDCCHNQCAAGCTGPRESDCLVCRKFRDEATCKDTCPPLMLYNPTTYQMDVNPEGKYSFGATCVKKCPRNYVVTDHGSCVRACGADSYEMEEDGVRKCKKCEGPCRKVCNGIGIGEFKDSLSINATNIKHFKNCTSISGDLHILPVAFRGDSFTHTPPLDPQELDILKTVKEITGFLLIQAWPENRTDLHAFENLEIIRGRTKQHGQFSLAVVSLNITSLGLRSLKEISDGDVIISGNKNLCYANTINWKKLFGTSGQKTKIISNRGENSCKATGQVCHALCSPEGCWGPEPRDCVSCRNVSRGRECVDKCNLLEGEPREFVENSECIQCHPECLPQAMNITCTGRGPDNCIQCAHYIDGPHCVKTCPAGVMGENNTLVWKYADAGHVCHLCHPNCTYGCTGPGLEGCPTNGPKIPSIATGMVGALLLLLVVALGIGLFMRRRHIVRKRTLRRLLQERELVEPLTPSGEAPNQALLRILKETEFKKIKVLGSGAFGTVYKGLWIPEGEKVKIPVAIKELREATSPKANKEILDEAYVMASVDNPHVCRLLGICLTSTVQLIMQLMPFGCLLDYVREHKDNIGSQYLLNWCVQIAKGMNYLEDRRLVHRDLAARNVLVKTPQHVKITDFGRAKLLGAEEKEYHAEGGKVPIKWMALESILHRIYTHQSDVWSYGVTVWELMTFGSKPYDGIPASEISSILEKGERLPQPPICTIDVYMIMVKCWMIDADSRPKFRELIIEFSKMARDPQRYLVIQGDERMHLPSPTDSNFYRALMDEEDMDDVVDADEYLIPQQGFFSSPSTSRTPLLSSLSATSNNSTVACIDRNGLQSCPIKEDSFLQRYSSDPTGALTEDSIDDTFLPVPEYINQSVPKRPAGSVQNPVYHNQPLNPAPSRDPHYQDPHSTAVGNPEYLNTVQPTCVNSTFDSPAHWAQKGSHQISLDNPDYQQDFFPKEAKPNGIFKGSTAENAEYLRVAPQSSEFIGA

| Compound | Activity (% inhibition) |
| --- | --- |
| O=C(Nc1nccs1)[C@@H](c1cc(F)ccc1O)N1Cc2ccc(-c3ccc(N4CCNCC4)cc3)cc2C1=O [Compound I-126, (R)-2-(5-fluoro-2-hydroxyphenyl)-2-(1-oxo-6-(4-(piperazin-1-yl)phenyl)isoindolin-2-yl)-N-(thiazol-2-yl)acetamide] | D (a % inhibition of between about 0% to about 25%) |
| CN(C)CCCCNC(=O)c1cccc(-c2ccc3c(c2)C(=O)N([C@@H](C(=O)Nc2nccs2)c2ccccc2)C3)c1 [Compound I-89, (R)-N-(4-(dimethylamino)butyl)-(3-oxo-2-(2-oxo-1-phenyl-2-(thiazol-2-ylamino)ethyl)isoindolin-5-yl)benzamide] | B (a % inhibition of between about 50% to about 75%) |
| O=C(NCC(O)CO)c1cc(N[C@@H](C(=O)Nc2nccs2)c2ccccc2)ccc1[N+](=O)[O-] (stereo partly drawn) [Compound I-110, N-(2,3-dihydroxypropyl)-2-nitro-5-(((R)-2-oxo-1-phenyl-2-(thiazol-2-ylamino)ethyl)amino)benzamide] | A (a % inhibition of about 75%) |
| O=C(Nc1ccccc1F)[C@@H](c1ccccc1)N1Cc2ccccc2C1=O [Compound I-55, (R)-N-(2-fluorophenyl)-2-(1-oxoisoindolin-2-yl)-2-phenylacetamide] | B (a % inhibition of between about 50% to about 75%) |
| O=C(Nc1ncco1)[C@@H](c1ccccc1)N1Cc2ccc(-c3ccc4[nH]ccc4c3)cc2C1=O [Compound I-129, (R)-2-(6-(1H-indol-5-yl)-1-oxoisoindolin-2-yl)-N-(oxazol-2-yl)-2-phenylacetamide] | B (a % inhibition of between about 50% to about 75%) |
| C[C@H](C(=O)Nc1nccs1)N1Cc2ccc(-c3ccc(N4CCNCC4)cc3)cc2C1=O [Compound I-118, (R)-2-(1-oxo-6-(4-(piperazin-1-yl)phenyl)isoindolin-2-yl)-N-(thiazol-2-yl)propanamide] | A (a % inhibition of about 75%) |
| O=C(Nc1nccs1)C(c1cccc(F)c1)N1Cc2ccc(-c3ccc(CN4CCNCC4)cc3)cc2C1=O (centres unmarked) [Compound I-125, 2-(3-fluorophenyl)-2-(1-oxo-6-(4-(piperazin-1-ylmethyl)phenyl)isoindolin-2-yl)-N-(thiazol-2-yl)acetamide] | D (a % inhibition of between about 0% to about 25%) |
| O=C(Nc1nccs1)[C@H](c1cccc([N+](=O)[O-])c1)N1Cc2ccccc2C1=O [Compound I-12, (S)-2-(3-nitrophenyl)-2-(1-oxoisoindolin-2-yl)-N-(thiazol-2-yl)acetamide] | A (a % inhibition of about 75%) |
| O=C(Nc1nccs1)[C@@H](c1ccccc1)N1Cc2cc(-c3ccccc3F)ccc2C1=O [Compound I-101, (R)-2-(5-(2-fluorophenyl)-1-oxoisoindolin-2-yl)-2-phenyl-N-(thiazol-2-yl)acetamide] | B (a % inhibition of between about 50% to about 75%) |
| O=C(NCCN1CCOCC1)c1ccc(-c2ccc3c(c2)C(=O)N([C@@H](C(=O)Nc2nccs2)c2ccccc2)C3)cc1 [Compound I-83, (R)-N-(2-morpholinoethyl)-4-(3-oxo-2-(2-oxo-1-phenyl-2-(thiazol-2-ylamino)ethyl)isoindolin-5-yl)benzamide] | D (a % inhibition of between about 0% to about 25%) |
| O=C(NCCN1CCOCC1)c1csc(NC(=O)[C@@H](c2ccccc2)N2Cc3ccccc3C2=O)n1 [Compound I-10, (R)-N-(2-morpholinoethyl)-2-(2-(1-oxoisoindolin-2-yl)-2-phenylacetamido)thiazole-4-carboxamide] | A (a % inhibition of about 75%) |
| O=C(Nc1nncs1)[C@@H](c1ccccc1)N1Cc2ccccc2C1=O [Compound I-41, (R)-2-(1-oxoisoindolin-2-yl)-2-phenyl-N-(1,3,4-thiadiazol-2-yl)acetamide] | A (a % inhibition of about 75%) |
| O=C(Nc1nncs1)[C@H](c1ccccc1)N1Cc2ccccc2C1=O [Compound I-42, (S)-2-(1-oxoisoindolin-2-yl)-2-phenyl-N-(1,3,4-thiadiazol-2-yl)acetamide] | A (a % inhibition of about 75%) |
| O=C(Nc1nccs1)[C@@H](c1ccccc1)N1Cc2ccc(Nc3cccc(F)c3)cc2C1=O [Compound I-99, (R)-2-(6-((3-fluorophenyl)amino)-1-oxoisoindolin-2-yl)-2-phenyl-N-(thiazol-2-yl)acetamide] | C (a % inhibition of between about 25% to about 50%) |
| O=C(Nc1nccs1)[C@@H](c1ccccc1)N1Cc2cc(Nc3ccc(N4CCOCC4)cc3)ccc2C1=O [Compound I-94, (R)-2-(5-((4-morpholinophenyl)amino)-1-oxoisoindolin-2-yl)-2-phenyl-(thiazol-2-yl)acetamide] | C (a % inhibition of between about 25% to about 50%) |
| O=C(NCC(O)CO)c1cc(Br)ccc1N[C@@H](C(=O)Nc1nccs1)c1ccccc1 (stereo partly drawn) [Compound I-111, 5-bromo-N-(2,3-dihydroxypropyl)-2-(((R)-2-oxo-1-phenyl-2-(thiazol-2-ylamino)ethyl)amino)benzamide] | A (a % inhibition of about 75%) |
| COc1ccc(-c2ccc3c(c2)C(=O)N([C@@H](C(=O)Nc2nccs2)c2ccccc2)C3)c(OC)c1 [Compound I-80, (R)-2-(6-(2,4-dimethoxyphenyl)-1-oxoisoindolin-2-yl)-2-phenyl-N-(thiazol-2-yl)acetamide] | C (a % inhibition of between about 25% to about 50%) |
| O=C(Nc1nc(-c2ccncc2)cs1)[C@@H](c1ccccc1)N1Cc2ccccc2C1=O [Compound I-37, (R)-2-(1-oxoisoindolin-2-yl)-2-phenyl-N-(4-(pyridin-4-yl)thiazol-2-yl)acetamide] | A (a % inhibition of about 75%) |
| O=C(Nc1nccs1)[C@@H](c1ccccc1)N1Cc2ccc(-c3ccccc3)cc2C1=O [Compound I-59, (R)-2-(1-oxo-6-phenylisoindolin-2-yl)-2-phenyl-N-(thiazol-2-yl)acetamide] | C (a % inhibition of between about 25% to about 50%) |
| O=C(Nc1ncccc1F)[C@@H](c1ccccc1)N1Cc2ccccc2C1=O [Compound I-56, (R)-N-(3-fluoropyridin-2-yl)-2-(1-oxoisoindolin-2-yl)-2-phenylacetamide] | B (a % inhibition of between about 50% to about 75%) |
| O=C(Nc1nc(C(=O)N2CCC(N3CCOCC3)CC2)cs1)[C@@H](c1ccccc1)N1Cc2ccccc2C1=O [Compound I-24, (R)-N-(4-(4-morpholinopiperidine-1-carbonyl)thiazol-2-yl)-2-(1-oxoisoindolin-2-yl)-2-phenylacetamide] | A (a % inhibition of about 75%) |
| C[C@@H](NC(=O)[C@H](c1ccccc1)N1Cc2ccccc2C1=O)c1ccccc1 [Compound I-1, (S)-2-(1-oxoisoindolin-2-yl)-2-phenyl-N-((R)-1-phenylethyl)acetamide] | A (a % inhibition of about 75%) |
| O=C(Nc1ccccc1)[C@@H](c1ccccc1)N1Cc2ccccc2C1=O [Compound I-51, (R)-2-(1-oxoisoindolin-2-yl)-N,2-diphenylacetamide] | A (a % inhibition of about 75%) |
| O=C(NCCCN1CCOCC1)c1csc(NC(=O)[C@@H](c2ccccc2)N2Cc3ccccc3C2=O)n1 [Compound I-14, (R)-N-(3-morpholinopropyl)-2-(2-(1-oxoisoindolin-2-yl)-2-phenylacetamido)thiazole-4-carboxamide] | A (a % inhibition of about 75%) |

Same assay, conditions: compound alone; read-out: L858R/T790M IC50

| Compound | GI50 |
| --- | --- |
| O=C(Nc1nccs1)[C@@H](c1cc(F)ccc1O)N1Cc2ccc(-c3ccc(N4CCNCC4)cc3)cc2C1=O [Compound I-126, (R)-2-(5-fluoro-2-hydroxyphenyl)-2-(1-oxo-6-(4-(piperazin-1-yl)phenyl)isoindolin-2-yl)-N-(thiazol-2-yl)acetamide] | 0.5 to 1 µM |

Same assay, conditions: read-out: L858R/T790M Cetuximab IC50; in combination with Cetuximab

| Compound | GI50 |
| --- | --- |
| O=C(Nc1nccs1)[C@@H](c1cc(F)ccc1O)N1Cc2ccc(-c3ccc(N4CCNCC4)cc3)cc2C1=O [Compound I-126, (R)-2-(5-fluoro-2-hydroxyphenyl)-2-(1-oxo-6-(4-(piperazin-1-yl)phenyl)isoindolin-2-yl)-N-(thiazol-2-yl)acetamide] | < 0.5 µM |
